Test results taken from patent publication US8912121B2, “Herbicidal compositions comprising 4-amino-3-chloro-5-fluoro-6-(4-chloro-2-fluoro-3-methoxyphenyl)pyridine-2-carboxylic acid or a derivative thereof and certain PS II inhibitors” (Dow Agrosciences LLC, priority 2012, dated 2014).

System: SCPMA (Schoenoplectus maritimus, sea clubrush)
Test: In-water applied mixtures, transplanted paddy rice, greenhouse
Assay type: in vivo, Schoenoplectus maritimus (L.) Lye
Procedure: Weed seeds or nutlets of the desired test plant species were planted in puddled soil (mud) prepared by mixing a shredded, non-sterilized mineral soil (50.5 percent silt, 25.5 percent clay, and 24 percent sand, with a pH of about 7.6 and an organic matter content of about 2.9 percent) and water at a 1:1 volumetric ratio. The prepared mud was dispensed in 365 mL aliquots into 16-ounce (oz.) non-perforated plastic pots with a surface area of 86.59 square centimeters (cm^2) leaving a headspace of 3 centimeters (cm) in each pot Mud was allowed to dry overnight prior to planting or transplanting. Rice seeds were planted in Sun Gro MetroMix® 306 planting mixture, which typically has a pH of 6.0 to 6.8 and an organic matter content of about 30 percent, in plastic plug trays. Seedlings at the second or third leaf stage of growth were transplanted into 840 mL of mud contained in 32-oz. non-perforated plastic pots with a surface area of 86.59 cm^2 4 days prior to herbicide application. The paddy was created by filling the headspace of the pots with 2.5 to 3 cm of water. When required to ensure good germination and healthy plants, a fungicide treatment and/or other chemical or physical treatment was applied. The plants were grown for 4-22 days in a greenhouse with an approximate 14 h photoperiod which was maintained at about 29° C during the day and 26° C. during the night. Nutrients were added as Osmocote® (19:6:12, N:P:K+ minor nutrients) at 2 g per 16-oz. pot and 4 g per 32-oz. pot. Water was added on a regular basis to maintain the paddy flood, and supplemental lighting was provided with overhead metal halide 1000-Watt lamps as necessary. The plants were employed for testing when they reached the first through fourth true leaf stage.
Treatments consisted of the acid or esters of 4-amino-3-chloro-5-fluoro-6-(4-chloro-2-fluoro-3-methoxy-phenyl)pyridine-2-carboxylic acid (compound A) each formulated as an SC (suspension concentrate) and various herbicidal components alone and in combination. Forms of compound A were applied on an acid equivalent basis.
Other herbicidal components were applied on an active ingredient basis and included photosystem II (PSII)-inhibits propanil formulated as […] bentazon-sodium formulated as Basagran®, and simetryne (technical grade material).
Treatment requirements for each compound or herbicidal component were calculated based upon the rates being tested, the concentration of active ingredient or acid equivalent in the formulation, an application volume of 2 mL per component per pot, and an application area of 86.59 cm^2 per pot.
For formulated compounds, a measured amount was placed in an individual 100 or 200 mL glass vial and was dissolved in a volume of 1.25% (v/v) Agri-Dex® crop oil concentrate to obtain application solutions.
For technical grade compounds, a weighed amount was placed in an individual 100 to 200 mL glass vial and was dissolved in a volume of acetone to obtain concentrated stock solutions. […] The concentrated stock solutions obtained were diluted with an equivalent volume of an aqueous mixture containing 2.5% (v/v) crop oil concentrate so that the final application solutions contained 1.25% (v/v) crop oil concentrate.
Applications were made by injecting with a pipetter appropriate amounts of the application solutions, individually and sequentially, into the aqueous layer of the paddy. Control plants were treated in the same manner with the solvent blank. Applications were made so that all treated plant material received the same concentrations of acetone and crop oil concentrate.
The treated plants and control plants were placed in a greenhouse as described above and water was added as needed to maintain a paddy flood. After approximately 3 weeks the condition of the test plants as compared with that of the untreated plants was determined visually and scored on a scale of 0 to 100 percent where 0 corresponds to no injury or growth inhibition and 100 corresponds to complete kill. […]

Structure (SMILES)	Visual Weed Control (%) Obs (8.75 g ae/ha, 21 DAA) [%]	Visual Weed Control (%) Obs (17.5 g ae/ha, 21 DAA) [%]	Visual Weed Control (%) Obs (35 g ae/ha, 20 DAA) [%]	Visual Weed Control (%) Obs (35 g ae/ha, 21 DAA) [%]	Visual Weed Control (%) Obs (70 g ae/ha, 20 DAA) [%]	Visual Weed Control (%) Obs (1680 g ai/ha, 21 DAA) [%]	Visual Weed Control (%) Obs (3360 g ai/ha, 21 DAA) [%]	Visual Weed Control (%) Obs (42.4 g ae/ha, 20 DAA) [%]	Visual Weed Control (%) Obs (84.8 g ae/ha, 20 DAA) [%]
COc1c(Cl)ccc(-c2nc(C(=O)OCc3ccccc3)c(Cl)c(N)c2F)c1F [Compound A Benzyl Ester, benzyl ester of 4-amino-3-chloro-5-fluoro-6-(4-chloro-2-fluoro-3-methoxy-phenyl)pyridine-2-carboxylic acid]	0	0	0	0	0				
CCC(=O)Nc1ccc(Cl)c(Cl)c1 [Propanil, N-(3,4-dichlorophenyl)propanamide, reference compound]						50	90		
COc1c(Cl)ccc(-c2nc(C(=O)O)c(Cl)c(N)c2F)c1F [Compound A Acid, 4-amino-3-chloro-6-(4-chloro-2-fluoro-3-methoxyphenyl)-5-fluoropyridine-2-carboxylic acid]	0	0		0				0	0
